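Cultured in 96-well plates, cells were exposed to test compound for 48 hours across five concentrations. The concentration for 50% growth inhibition is given as GI50.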 Active and inactive are the calls of the source. Cut-off read from the data, not from the text of the source: active = GI50 up to about 1.1 µM and inactive = higher.
Key:
Test in all cases: NCI tumour cell line growth inhibition, 48 h
UO-31 = test system: UO-31
HCT-116 = test system: HCT-116
SF-295 = test system: SF-295
DU-145 = test system: DU-145
MDA-MB-231 = test system: MDA-MB-231
COLO 205 = test system: COLO 205
MDA-MB-435 = test system: MDA-MB-435
SF-268 = test system: SF-268
SNB-19 = test system: SNB-19
SF-539 = test system: SF-539
NCI/ADR-RES = test system: NCI/ADR-RES
M14 = test system: M14
U-251 = test system: U-251
A498 = test system: A498
NCI-H23 = test system: NCI-H23
CCRF-CEM = test system: CCRF-CEM
SK-MEL-5 = test system: SK-MEL-5
A549 = test system: A549
786-0 = test system: 786-0
HCC 2998 = test system: HCC 2998

Measured: GI50

O=C(O)CSC1=NCCN1
inactive: UO-31 > 100 µM | HCT-116 > 100 µM | SF-295 > 100 µM | DU-145 > 100 µM | MDA-MB-231 > 100 µM | COLO 205 > 100 µM | MDA-MB-435 > 100 µM | SF-268 > 100 µM | SNB-19 > 100 µM | SF-539 > 100 µM | NCI/ADR-RES > 100 µM | M14 > 100 µM | U-251 > 100 µM | A498 > 100 µM | NCI-H23 > 100 µM | CCRF-CEM > 100 µM | SK-MEL-5 > 100 µM | A549 > 100 µM | 786-0 > 100 µM

C(=N\c1ccc(-c2nc3ccccc3[nH]2)cc1)/c1cccs1
inactive: UO-31 31.2 µM | HCT-116 > 100 µM | SF-295 75.7 µM | DU-145 > 100 µM | MDA-MB-231 51.4 µM | COLO 205 97.5 µM | MDA-MB-435 > 100 µM | SF-268 > 100 µM | SNB-19 > 100 µM | SF-539 > 100 µM | NCI/ADR-RES 43 µM | M14 > 100 µM | U-251 89.7 µM | A498 > 100 µM | NCI-H23 > 100 µM | CCRF-CEM 22 µM | SK-MEL-5 54 µM | A549 > 100 µM | 786-0 > 100 µM

CCOC(=O)c1c(-c2ccc(OC)cc2)c(C#N)c(=S)n(C2OC(CO)C(O)C(O)C2O)c1-c1ccccc1 (stereo unspecified)
inactive: UO-31 51.5 µM | HCT-116 27.2 µM | HCC 2998 39.6 µM | SF-295 44.9 µM | DU-145 48.4 µM | MDA-MB-231 36 µM | COLO 205 49.3 µM | MDA-MB-435 30.8 µM | SF-268 68.7 µM | SNB-19 85.1 µM | SF-539 38.1 µM | NCI/ADR-RES > 100 µM | M14 31.9 µM | U-251 47.1 µM | NCI-H23 31.8 µM | CCRF-CEM 31.2 µM | SK-MEL-5 13.3 µM | A549 > 100 µM | 786-0 48.2 µM

NS(=O)(=O)c1ccc(/N=N/c2cc3ccccc3c(C(=O)O)c2O)cc1
inactive: UO-31 > 49.8 µM | HCT-116 12.6 µM | SF-295 > 100 µM | DU-145 > 46 µM | MDA-MB-231 > 52 µM | COLO 205 > 58.6 µM | MDA-MB-435 > 55.8 µM | SF-268 > 52.1 µM | SNB-19 > 64.9 µM | SF-539 > 100 µM | NCI/ADR-RES > 64.1 µM | M14 97.1 µM | U-251 > 39.9 µM | A498 > 53.6 µM | NCI-H23 > 47.8 µM | CCRF-CEM 78 µM | SK-MEL-5 > 59.2 µM | A549 > 52.7 µM | 786-0 > 55.8 µM

O=C1NC(Cc2ccc(O)cc2)C(=O)NC1Cc1ccc(O)cc1 (stereo unspecified)
inactive: UO-31 > 100 µM | HCT-116 > 100 µM | SF-295 > 100 µM | DU-145 24.8 µM | MDA-MB-231 > 100 µM | COLO 205 > 100 µM | MDA-MB-435 > 100 µM | SF-268 > 100 µM | SNB-19 > 100 µM | SF-539 > 100 µM | NCI/ADR-RES > 100 µM | M14 > 100 µM | U-251 > 100 µM | A498 > 100 µM | NCI-H23 > 100 µM | CCRF-CEM > 100 µM | SK-MEL-5 > 100 µM | A549 > 100 µM | 786-0 > 100 µM

O=C1Oc2cc(O)cc(/C=C/c3ccc(O)cc3)c2[C@@]12c1c(O)cc(O)cc1OC2c1cccc(O)c1 (stereo partly specified)
inactive: UO-31 29.7 µM | HCT-116 29 µM | HCC 2998 19.5 µM | SF-295 32.2 µM | DU-145 39 µM | MDA-MB-231 26.4 µM | COLO 205 26 µM | MDA-MB-435 21.4 µM | SF-268 36.6 µM | SNB-19 30.7 µM | SF-539 31.8 µM | NCI/ADR-RES 67.1 µM | M14 28.6 µM | U-251 32.9 µM | NCI-H23 24.7 µM | CCRF-CEM 22 µM | SK-MEL-5 12.5 µM | A549 54 µM | 786-0 24.5 µM

C=CCN(C(=O)OC(C)(C)C)[C@H](C)C(=O)N[C@@H](C)C(=O)OC
inactive: UO-31 > 100 µM | HCT-116 > 100 µM | SF-295 > 100 µM | DU-145 > 100 µM | MDA-MB-231 > 100 µM | COLO 205 > 100 µM | MDA-MB-435 > 100 µM | SF-268 > 100 µM | SNB-19 > 100 µM | SF-539 > 100 µM | NCI/ADR-RES > 100 µM | M14 > 100 µM | U-251 > 100 µM | A498 > 100 µM | NCI-H23 > 100 µM | CCRF-CEM 36 µM | SK-MEL-5 > 100 µM | A549 > 100 µM | 786-0 > 100 µM

CC(C)=CCc1cc2c(cc1O)OC[C@H]1c3cc4c(cc3O[C@@H]21)OCO4
inactive: UO-31 31.6 µM | HCT-116 17.1 µM | HCC 2998 > 10 µM | SF-295 > 100 µM | DU-145 38.8 µM | MDA-MB-231 40.3 µM | COLO 205 > 100 µM | MDA-MB-435 32.6 µM | SF-268 56.6 µM | SNB-19 66.1 µM | SF-539 36.7 µM | NCI/ADR-RES 29.8 µM | M14 62.1 µM | U-251 37.5 µM | NCI-H23 33.2 µM | CCRF-CEM 26.4 µM | SK-MEL-5 20.3 µM | A549 80.4 µM | 786-0 42.1 µM

Cc1ccnc(NC(=S)Nc2ccccc2Cl)c1
inactive: UO-31 > 100 µM | HCT-116 > 100 µM | SF-295 87.7 µM | DU-145 > 100 µM | MDA-MB-231 2.23 µM | COLO 205 > 100 µM | MDA-MB-435 > 100 µM | SF-268 33.6 µM | SNB-19 > 100 µM | SF-539 > 100 µM | NCI/ADR-RES > 100 µM | M14 > 100 µM | U-251 > 100 µM | A498 > 100 µM | CCRF-CEM > 100 µM | SK-MEL-5 > 100 µM | A549 > 100 µM | 786-0 > 100 µM

Fc1ccc(Nc2nnc(-c3ccccn3)s2)cc1
inactive: HCT-116 > 100 µM | SF-295 > 100 µM | DU-145 > 100 µM | MDA-MB-231 > 100 µM | COLO 205 > 100 µM | MDA-MB-435 > 100 µM | SF-268 > 100 µM | SNB-19 > 100 µM | SF-539 > 100 µM | NCI/ADR-RES > 100 µM | M14 > 100 µM | U-251 > 100 µM | A498 > 100 µM | NCI-H23 > 100 µM | CCRF-CEM > 100 µM | SK-MEL-5 > 100 µM | A549 > 100 µM | 786-0 > 100 µM

CSC(=N/C=C/c1ccccc1)SC
inactive: UO-31 > 100 µM | HCT-116 > 100 µM | SF-295 > 100 µM | DU-145 > 100 µM | MDA-MB-231 > 100 µM | COLO 205 > 100 µM | MDA-MB-435 76.7 µM | SF-268 > 100 µM | SNB-19 > 100 µM | SF-539 > 100 µM | NCI/ADR-RES > 100 µM | M14 > 100 µM | U-251 > 100 µM | A498 > 100 µM | NCI-H23 > 100 µM | CCRF-CEM 98.9 µM | A549 60.3 µM | 786-0 > 100 µM

CC(C)OCC1CC(CC(=O)Nc2nncs2)C(=O)O1 (stereo unspecified)
inactive: UO-31 > 100 µM | HCT-116 > 100 µM | HCC 2998 > 100 µM | SF-295 > 100 µM | DU-145 > 100 µM | MDA-MB-231 > 100 µM | COLO 205 > 100 µM | MDA-MB-435 > 100 µM | SF-268 > 100 µM | SNB-19 > 100 µM | SF-539 > 100 µM | NCI/ADR-RES > 100 µM | M14 > 100 µM | U-251 > 100 µM | NCI-H23 > 100 µM | CCRF-CEM > 100 µM | SK-MEL-5 > 100 µM | A549 > 100 µM | 786-0 > 100 µM

CCOC(=O)Cc1cc(=O)oc2cc(O)ccc12
inactive: UO-31 > 100 µM | HCT-116 > 100 µM | SF-295 > 100 µM | DU-145 > 100 µM | MDA-MB-231 > 100 µM | COLO 205 > 100 µM | MDA-MB-435 > 100 µM | SF-268 > 100 µM | SNB-19 > 100 µM | SF-539 > 100 µM | NCI/ADR-RES > 100 µM | M14 > 100 µM | U-251 > 100 µM | A498 > 100 µM | NCI-H23 > 100 µM | CCRF-CEM > 100 µM | SK-MEL-5 > 100 µM | A549 > 100 µM | 786-0 > 100 µM

NC(=O)C(c1ccccc1)N1OC2C(=O)N(c3cccc4ccccc34)C(=O)C2C1c1c2ccccc2c(Cl)c2ccccc12 (stereo unspecified)
inactive: UO-31 12 µM | HCT-116 1.23 µM | SF-295 9.75 µM | DU-145 14.5 µM | MDA-MB-231 9.25 µM | COLO 205 7.85 µM | MDA-MB-435 6.92 µM | SF-268 9.1 µM | SNB-19 8.22 µM | SF-539 5.24 µM | NCI/ADR-RES 5.15 µM | M14 7.03 µM | U-251 7.57 µM | A498 14.6 µM | NCI-H23 9.2 µM | SK-MEL-5 5.06 µM | A549 13.9 µM | 786-0 10.2 µM

CCc1nnc(CC)n1-n1c(Cc2ccccc2)n[nH]c1=O
inactive: UO-31 > 100 µM | HCT-116 > 100 µM | HCC 2998 > 100 µM | SF-295 > 100 µM | DU-145 > 100 µM | MDA-MB-231 > 100 µM | COLO 205 > 100 µM | MDA-MB-435 > 100 µM | SF-268 > 100 µM | SNB-19 > 100 µM | SF-539 > 100 µM | NCI/ADR-RES > 100 µM | M14 > 100 µM | U-251 > 100 µM | NCI-H23 > 100 µM | CCRF-CEM > 100 µM | SK-MEL-5 > 100 µM | A549 > 100 µM | 786-0 > 100 µM
